Experimental data from patent publication US12187706B2, “NLRP3 modulators” (INNATE TUMOR IMMUNITY, INC., priority 2019, dated 2025).

Molecular target: T1, NLRP3 (Homo sapiens, UniProt Q96P20)
T1 construct: host or cells: PMA-differentiated THP-1 cells
Assay: Measurement of IL-1β production in PMA-differentiated THP-1 cells (NLRP3 hIL1B)
Type: cell-based
Method: Measurement of IL-1β Production in PMA-Differentiated THP-1 Cells
THP-1 cells were purchased from the American Type Culture Collection and sub-cultured according to instructions from the supplier. Prior to experiments, cells were cultured in RPMI 1640 containing 10% heat inactivated FBS, penicillin (100 units/ml) and streptomycin (100 μg/ml), and maintained in log phase prior to experimental setup. Prior to the experiment THP-1 were treated with PMA (Phorbol 12-myristate 13-acetate) (10 μg/ml) for 24 hours. The day of the experiment the media was removed and attaching cells were treated with trypsin for 2 minutes, cells were then collected, washed with PBS (phosphate buffer saline), spin down, resuspended in 2% heat inactivated FBS with RPMI at a concentration of 1×10^6 cells/ml, and 100 μl was plated in a 96 well plate. Compounds were dissolved in dimethyl sulfoxide (DMSO) and added to the culture medium to achieve desired concentration (e.g. 100, 30, 10, 3, 1, 0.3 or 0.1 μM). Cells were incubated with compounds for 4 hours. Cell free supernatant was collected and the production of IL-1β was evaluated by ELISA. A vehicle only control was run concurrently with each experiment. Final DMSO concentration was 1%.
Measurement of IL-1β Production in PMA-Differentiated THP-1 Cells (Alternative Procedure)
THP-1 cells were purchased from the American Type Culture Collection and sub-cultured according to instructions from the supplier. Prior to experiments, cells were cultured in RPMI 1640 containing 10% heat inactivated FBS, penicillin (100 units/ml), streptomycin (100 μg/ml), HEPES (10 mM) and sodium pyruvate (1 mM) and maintained in log phase prior to experimental setup. Prior to the experiment, THP-1 cells were treated with PMA (Phorbol 12-myristate 13-acetate) (20 μg/ml) overnight. The day of the experiment, the media was removed and attached cells were treated with trypsin for 2 minutes, cells were then collected, washed with PBS (phosphate buffer saline), pelleted by centrifugation and resuspended in 2% heat inactivated FBS with RPMI at a concentration of 50,000 cells/well in a 384 well plate. Cell free supernatant was collected and the production of IL-1β was evaluated by ELISA. Compounds were dissolved in dimethyl sulfoxide (DMSO) and added to the culture medium to achieve desired concentration (e.g. 100, 30, 10, 3, 1, 0.3 or 0.1 μM). Cells were incubated with compounds for 2 hours. A vehicle only control was run concurrently with each experiment. Final DMSO concentration was 1%.
Measurement of IL-1β Production—hTRF Protocol (Second Alternative Procedure)
Serial dilutions of compounds in DMSO were added to low volume 384 well plates at 100 nl/well using an ECHO 550 acoustic dispenser (Labcyte) to achieve final starting concentration of 10 μM in assay.
THP-1 cells in RPMI (Gibco, 11875) media with 10% FBS at a density of 1×10^6 cell/ml in a T175 flask were treated with a final concentration of phorbol 12-myristate 13-acetate (PMA) (Sigma, P1585) of 50 ng/ml overnight at 37° C. at 5% CO2 for differentiation. Cells were harvested the next day after rinsing well with dPBS using 0.5% trypsin. A cell solution was prepared of 1×10^6 cells/ml for 50,000 cells in 50 μl/well in RPMI media with 2% FBS. Cells were plated using a multichannel pipette onto the compound dilutions in Greiner, 384 well, black clear bottom tissue culture treated plates (781090). The plates were incubated in 37° C. incubator at 5% CO2 for 2 hours.
After the 2 hour incubation, the cell plates were spun in the centrifuge for 5 minutes at 1200 rpm. Using the Felix (CyBio), 8 μl of the supernatant was transferred to 384 well, low volume, white proxy plates. (Perkin Elmer, 6008230). A human IL1beta hTRF kit was used to analyze the supernatant (CISBIO, 62HIL1BPEG). The kit instructions were followed for preparing the IL1Beta standard curve and then the antibodies from the kit were diluted 1:40 rather than 1:20 as kit instructed.

T1 sequence (Q96P20 whole entry): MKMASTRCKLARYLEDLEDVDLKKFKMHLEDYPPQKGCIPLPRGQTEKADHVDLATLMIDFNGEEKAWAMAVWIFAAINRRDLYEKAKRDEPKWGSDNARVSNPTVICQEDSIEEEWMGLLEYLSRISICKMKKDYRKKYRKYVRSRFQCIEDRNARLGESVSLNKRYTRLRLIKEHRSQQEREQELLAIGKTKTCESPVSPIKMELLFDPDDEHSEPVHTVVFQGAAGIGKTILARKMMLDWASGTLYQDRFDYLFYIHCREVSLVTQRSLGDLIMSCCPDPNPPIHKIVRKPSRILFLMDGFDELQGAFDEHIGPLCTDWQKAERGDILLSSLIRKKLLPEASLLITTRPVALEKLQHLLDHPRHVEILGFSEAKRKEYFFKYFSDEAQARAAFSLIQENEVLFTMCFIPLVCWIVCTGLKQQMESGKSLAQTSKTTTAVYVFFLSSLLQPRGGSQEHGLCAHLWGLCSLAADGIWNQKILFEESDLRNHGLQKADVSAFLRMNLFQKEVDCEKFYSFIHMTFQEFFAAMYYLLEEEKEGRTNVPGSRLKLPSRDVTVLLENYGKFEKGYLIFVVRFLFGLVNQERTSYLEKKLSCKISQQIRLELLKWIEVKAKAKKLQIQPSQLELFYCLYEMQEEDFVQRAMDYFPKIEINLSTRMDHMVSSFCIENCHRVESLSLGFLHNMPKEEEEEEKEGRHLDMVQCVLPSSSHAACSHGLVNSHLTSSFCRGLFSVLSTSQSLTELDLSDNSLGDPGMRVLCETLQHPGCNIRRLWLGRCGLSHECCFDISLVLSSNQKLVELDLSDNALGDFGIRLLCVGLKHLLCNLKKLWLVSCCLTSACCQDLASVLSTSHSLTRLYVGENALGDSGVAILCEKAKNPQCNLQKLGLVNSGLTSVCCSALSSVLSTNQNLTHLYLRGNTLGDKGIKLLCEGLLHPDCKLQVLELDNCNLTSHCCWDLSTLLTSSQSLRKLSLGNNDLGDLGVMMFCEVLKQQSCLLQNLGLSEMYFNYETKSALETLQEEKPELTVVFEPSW

| SMILES | EC50 |
| --- | --- |
| CC(CCO)Nc1nc(N)nc2cc(-c3ccn[nH]3)ccc12 (single isomer, unassigned) [Example 201, 3-((2-amino-7-(1H-pyrazol-5-yl)quinazolin-4-yl)amino)butan-1-ol] | 70 nM |
| C[C@@H](O)CNc1nc(N)nc2cc(-c3ccn[nH]3)ccc12 [Example 1, (R)-1-((2-amino-7-(1H-pyrazol-5-yl)quinazolin-4-yl)amino)propan-2-ol] | 450 nM |
| Nc1nc(Nc2cc[nH]n2)c2ccc(-c3ccn[nH]3)cc2n1 [Example 2, N4-(1H-pyrazol-3-yl)-7-(1H-pyrazol-5-yl)quinazoline-2,4-diamine] | 220 nM |
| Nc1nc(NCCCO)c2cc(Cl)c(-c3ccn[nH]3)cc2n1 [Example 3, 3-((2-amino-6-chloro-7-(1H-pyrazol-5-yl)quinazolin-4-yl)amino)propan-1-ol] | 6840 nM |
| Cn1ncnc1COc1nc(N)nc2cc(-c3ccn[nH]3)ccc12 [Example 7, 4-((1-methyl-1H-1,2,4-triazol-5-yl)methoxy)-7-(1H-pyrazol-5-yl)quinazolin-2-amine] | 4460 nM |
| Nc1nc(NCCCO)c2c(F)cc(-c3ccn[nH]3)cc2n1 [Example 15, 3-((2-amino-5-fluoro-7-(1H-pyrazol-3-yl)quinazolin-4-yl)amino)propan-1-ol] | 240 nM |
| Nc1nc(NCCCO)c2c(Cl)cc(-c3cc[nH]n3)cc2n1 [Example 18, 3-((2-amino-5-chloro-7-(1H-pyrazol-3-yl)quinazolin-4-yl)amino)propan-1-ol] | 650 nM |
| CN(C)c1cc(-c2cc[nH]n2)cc2nc(N)nc(NCCCO)c12 [Example 22, 3-((2-amino-5-(dimethylamino)-7-(1H-pyrazol-3-yl)quinazolin-4-yl)amino)propan-1-ol] | 9240 nM |
| Nc1nc(NCc2cc[nH]n2)c2ccc(-c3ccn[nH]3)cc2n1 [Example 27] | 430 nM |
| CC(C)(O)CNc1nc(N)nc2cc(-c3ccn[nH]3)ccc12 [Example 29] | 390 nM |
| Nc1nc(N[C@@H]2CCC[C@@H]2O)c2ccc(-c3ccn[nH]3)cc2n1 [Example 30] | 300 nM |

More lines, in order of falling EC50, values ahead:

| EC50 | SMILES |
| --- | --- |
| 9860 nM | Nc1nc(NCCCO)c2c(-c3cc[nH]n3)cc(-c3cc[nH]n3)cc2n1 [Example 19, 3-((2-amino-5,7-di(1H-pyrazol-3-yl)quinazolin-4-yl)amino)propan-1-ol] |
| 1680 nM | Nc1nc(NCCCO)c2cc(F)c(-c3ccn[nH]3)cc2n1 [Example 24, 3-((2-amino-6-fluoro-7-(1H-pyrazol-5-yl)quinazolin-4-yl)amino)propan-1-ol] |
| 880 nM | COC(CO)CNc1nc(N)nc2cc(-c3ccn[nH]3)ccc12 (single isomer, unassigned) [Example 202, 3-((2-amino-7-(1H-pyrazol-5-yl)quinazolin-4-yl)amino)-2-methoxypropan-1-ol] |
| 800 nM | Nc1nc(NCCn2cncn2)c2ccc(-c3ccn[nH]3)cc2n1 [Example 31] |
| 670 nM | Nc1nc(N[C@H]2CCOC2)c2ccc(-c3ccn[nH]3)cc2n1 [Example 23, (S)-7-(1H-pyrazol-5-yl)-N4-(tetrahydrofuran-3-yl)quinazoline-2,4-diamine] |
| 650 nM | Cc1cc(-c2cc[nH]n2)cc2nc(N)nc(NCCCO)c12 [Example 21, 3-((2-amino-5-methyl-7-(1H-pyrazol-3-yl)quinazolin-4-yl)amino)propan-1-ol] |
| 640 nM | Nc1nc(NCc2nc[nH]n2)c2ccc(-c3ccn[nH]3)cc2n1 [Example 32] |
| 450 nM | COC(CO)CNc1nc(N)nc2cc(-c3ccn[nH]3)ccc12 (single isomer, unassigned) [Example 203, 3-((2-amino-7-(1H-pyrazol-5-yl)quinazolin-4-yl)amino)-2-methoxypropan-1-ol] |
| 370 nM | Nc1nc(NCCCO)c2ccc(-c3ccn[nH]3)cc2n1 [Example 14, 3-((2-amino-7-(1H-pyrazol-3-yl)quinazolin-4-yl)amino)propan-1-ol] |
| 240 nM | Nc1nc(NCc2nccs2)c2ccc(-c3ccn[nH]3)cc2n1 [Example 28] |
| 120 nM | Nc1nc(NCC(F)(F)c2ccccn2)c2ccc(-c3ccn[nH]3)cc2n1 [Example 26] |
